Laboratory results published in patent US20010046504A1, “CYCLOPHOSPHAMIDE FILM-COATED TABLETS” (priority 1998, published 2001).

Type: physicochemical
Experimental: Investigations on the Compatibility of Cyclophosphamide with Various Tableting Auxiliaries […] The pressed tablets were stored at 31° C. for 6 months. The decomposition of the active compound was carried out [sic] by means of chloride determination.

## Preswollen starch [Auxiliary 9]
  Stability of cyclophosphamide in the presence of auxiliary (in words): somewhat indifferent
